According to the supplement of paper PMC10307832:

Assays:
Assay in all cases: relative viability (nuclei count vs DMSO), 5 days (fraction); higher = more cells survive
Idelalisib + Navitoclax = compound: CC[C@H](Nc1ncnc2[nH]cnc12)c1nc2cccc(F)c2c(=O)n1-c1ccccc1 [Idelalisib] + CC1(C)CCC(c2ccc(Cl)cc2)=C(CN2CCN(c3ccc(C(=O)NS(=O)(=O)c4ccc(N[C@H](CCN5CCOCC5)CSc5ccccc5)c(S(=O)(=O)C(F)(F)F)c4)cc3)CC2)C1 [Navitoclax] (partner 0.5 µM)
Outline: (§1)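 Medians of duplicate plates are given as relative viability. That measure is the nuclei count in treated wells divided by the count in vehicle wells. Counts were taken on 4× images of lung cancer cell lines in 1536-well plates, 5 days after pin-tool dosing the day after seeding with one drug alone or a fixed anchor-drug dose plus five library-drug doses (not always all listed) in √10 steps.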

Idelalisib + Vorinostat = compound: CC[C@H](Nc1ncnc2[nH]cnc12)c1nc2cccc(F)c2c(=O)n1-c1ccccc1 [Idelalisib] + O=C(CCCCCCC(=O)Nc1ccccc1)NO [Vorinostat] (partner 1 µM)
Outline: as §1

Pemetrexed + Foretinib = compound: Nc1nc2[nH]cc(CCc3ccc(C(=O)N[C@@H](CCC(=O)O)C(=O)O)cc3)c2c(=O)[nH]1 [Pemetrexed] + COc1cc2c(Oc3ccc(NC(=O)C4(C(=O)Nc5ccc(F)cc5)CC4)cc3F)ccnc2cc1OCCCN1CCOCC1 [Foretinib] (partner 0.25 µM)
Outline: as §1

Pemetrexed + Phenformin = compound: Nc1nc2[nH]cc(CCc3ccc(C(=O)N[C@@H](CCC(=O)O)C(=O)O)cc3)c2c(=O)[nH]1 [Pemetrexed] + N=C(N)NC(=N)NCCc1ccccc1 [Phenformin] (partner 250 µM)
Outline: as §1

| Cell Line | relative viability (Idelalisib + Navitoclax; first compound 0.04 µM) | relative viability (Idelalisib + Navitoclax; first compound 0.1265 µM) | relative viability (Idelalisib + Navitoclax; first compound 0.4 µM) | relative viability (Idelalisib + Navitoclax; first compound 1.265 µM) | relative viability (Idelalisib + Navitoclax; first compound 4 µM) | relative viability (Idelalisib + Vorinostat; first compound 0.04 µM) | relative viability (Idelalisib + Vorinostat; first compound 0.1265 µM) | relative viability (Idelalisib + Vorinostat; first compound 0.4 µM) | relative viability (Idelalisib + Vorinostat; first compound 1.265 µM) | relative viability (Idelalisib + Vorinostat; first compound 4 µM) | relative viability (Pemetrexed + Foretinib; first compound 0.002 µM) | relative viability (Pemetrexed + Foretinib; first compound 0.006325 µM) | relative viability (Pemetrexed + Foretinib; first compound 0.02 µM) | relative viability (Pemetrexed + Foretinib; first compound 0.06325 µM) | relative viability (Pemetrexed + Foretinib; first compound 0.2 µM) | relative viability (Pemetrexed + Phenformin; first compound 0.002 µM) | relative viability (Pemetrexed + Phenformin; first compound 0.006325 µM) | relative viability (Pemetrexed + Phenformin; first compound 0.02 µM) | relative viability (Pemetrexed + Phenformin; first compound 0.06325 µM) | relative viability (Pemetrexed + Phenformin; first compound 0.2 µM) |
| --- | --- | --- | --- | --- | --- | --- | --- | --- | --- | --- | --- | --- | --- | --- | --- | --- | --- | --- | --- | --- |
| NCI-H520 | 0.981 | 0.944 | 0.983 | 1.24 | 0.798 | 0.768 | 0.708 | 0.669 | 0.722 | 0.488 | 0.787 | 0.749 | 0.848 | 0.693 | 0.738 | 0.567 | 0.756 | 0.756 | 0.65 | 0.501 |
| NCI-H838 | 1 | 1.14 | 1.07 | 1.05 | 0.977 | 0.752 | 0.731 | 0.68 | 0.716 | 0.618 | 1.01 | 0.912 | 1.16 | 0.91 | 0.267 | 0.616 | 0.546 | 0.792 | 0.379 | 0.155 |
| LK-2 | 0.99 | 0.835 |  | 1.02 | 0.729 | 0.307 | 0.295 | 0.173 | 0.338 | 0.221 | 1.09 | 0.984 | 1.25 | 1.2 | 1.11 | 0.51 | 0.475 | 0.883 | 0.376 | 0.267 |
| HCC-827 | 1.06 | 1.05 | 1.03 | 1.03 | 0.964 | 0.957 | 0.664 | 0.897 | 0.848 | 0.969 | 0.903 | 1.03 | 1.03 | 1.01 | 0.916 | 0.366 | 0.417 | 0.436 | 0.4 | 0.37 |
| SW 1573 | 0.859 | 0.837 | 0.994 | 0.926 | 0.791 | 0.907 | 0.629 | 0.7 | 0.556 | 0.49 | 0.909 | 0.808 | 0.951 | 0.979 | 0.855 | 0.401 | 0.348 | 0.447 | 0.353 | 0.388 |
| NCI-H2023 | 1.05 | 1.02 | 0.994 | 0.945 | 0.939 | 0.909 | 0.702 | 0.469 | 0.375 | 0.682 |  | 0.739 | 0.885 | 0.888 | 0.319 | 0.343 | 0.397 | 0.473 | 0.354 | 0.203 |
| EPLC-272H | 1.08 | 1.14 | 1 | 1 | 0.959 | 0.422 | 0.405 | 0.431 | 0.292 | 0.452 | 0.648 | 0.609 | 0.774 | 0.678 | 0.573 | 0.242 | 0.315 | 0.333 | 0.292 | 0.267 |
| SK-LU-1 | 0.871 | 1.05 | 0.988 | 0.683 | 0.799 | 0.739 | 0.735 | 0.645 | 0.813 | 0.768 | 0.71 | 0.888 | 0.923 | 0.783 | 0.801 | 0.497 | 0.497 | 0.626 | 0.547 | 0.534 |
| NCI-H1395 | 1.53 | 1.11 | 1.05 | 1.04 | 0.982 | 0.841 | 0.813 | 0.692 | 0.674 | 0.692 | 0.912 | 0.965 | 1.05 | 0.962 | 0.937 | 0.4 | 0.472 | 0.521 | 0.411 | 0.447 |
| NCI-H2085 | 1.23 | 1.16 | 0.951 | 0.938 | 0.764 | 0.794 | 0.788 | 0.702 | 0.614 | 0.484 | 1.03 | 0.737 | 1.11 | 0.966 | 1.17 | 0.664 | 0.685 | 0.735 | 0.808 | 0.779 |
| NCI-H2087 | 0.885 | 0.938 | 0.98 | 1.03 | 0.823 | 0.592 | 0.667 | 0.614 | 0.781 | 0.204 | 1.09 | 1.01 | 1.17 | 0.986 | 0.783 | 0.397 | 0.446 | 0.475 | 0.473 | 0.47 |
| NCI-H322M | 1.2 | 1.2 | 1.09 | 1.25 | 1.04 | 1.03 | 0.993 | 0.799 | 0.899 | 0.911 | 0.961 | 0.864 | 0.973 | 0.917 | 0.834 | 0.861 | 0.747 | 0.799 | 0.741 | 0.613 |
| NCI-H1734 | 0.746 | 0.841 | 0.654 | 0.724 | 0.584 | 0.914 | 0.846 | 0.627 | 0.642 | 0.755 | 0.871 | 0.77 | 0.976 | 0.794 | 0.532 | 0.459 | 0.343 | 0.458 | 0.373 | 0.386 |
| NCI-H2228 | 1.04 | 0.569 | 0.742 | 1.03 | 0.666 | 0.812 | 0.53 | 0.482 | 0.588 | 0.613 | 0.71 |  | 0.993 | 0.633 | 0.302 | 0.308 |  | 0.268 | 0.2 | 0.184 |
| EKVX | 0.863 | 0.914 | 0.876 | 0.807 | 0.853 | 0.726 | 0.792 | 0.676 | 0.703 | 0.399 | 0.733 | 0.795 | 1.05 | 0.908 | 0.491 | 0.246 | 0.284 | 0.26 | 0.254 | 0.206 |
